# In patent publication US4771062A, “Diaryl sulphide derivatives” (Bayer Aktiengesellschaft, priority 1986, dated 1988):
# Structures can show the parent of a compound that is named as a salt.
# Tested on: not listed separately
# Experiment: appearance of the isolated salt in air (hygroscopicity)
# Assay type: physicochemical
# Conditions: after lyophilization
# Experimental: 3 g of bis[4-(Δ^2 -thiazolin-2-yl)aminophenyl]sulphide are taken up in 0.6 ml of 1N HCl and 10 ml of H2 O and the mixture is lyophilized.
row,SMILES,hygroscopicity
1,"c1cc(Sc2ccc(NC3=NCCS3)cc2)ccc1NC1=NCCS1 [Example 3, Bis[4-(Δ^2-thiazolin-2-yl)aminophenyl]sulphide HCl salt]",Hygroscopic crystals which deliquesce in air

# Molecular target: T1, lipoxygenase activity of PMN (Rattus norvegicus, UniProt P12527)
# T1 construct: lipoxygenase activity of PMN in rats; endogenous in cells; host or cells: rat PMN (polymorphonuclear leucocytes)
# T1 sequence (P12527 1-673): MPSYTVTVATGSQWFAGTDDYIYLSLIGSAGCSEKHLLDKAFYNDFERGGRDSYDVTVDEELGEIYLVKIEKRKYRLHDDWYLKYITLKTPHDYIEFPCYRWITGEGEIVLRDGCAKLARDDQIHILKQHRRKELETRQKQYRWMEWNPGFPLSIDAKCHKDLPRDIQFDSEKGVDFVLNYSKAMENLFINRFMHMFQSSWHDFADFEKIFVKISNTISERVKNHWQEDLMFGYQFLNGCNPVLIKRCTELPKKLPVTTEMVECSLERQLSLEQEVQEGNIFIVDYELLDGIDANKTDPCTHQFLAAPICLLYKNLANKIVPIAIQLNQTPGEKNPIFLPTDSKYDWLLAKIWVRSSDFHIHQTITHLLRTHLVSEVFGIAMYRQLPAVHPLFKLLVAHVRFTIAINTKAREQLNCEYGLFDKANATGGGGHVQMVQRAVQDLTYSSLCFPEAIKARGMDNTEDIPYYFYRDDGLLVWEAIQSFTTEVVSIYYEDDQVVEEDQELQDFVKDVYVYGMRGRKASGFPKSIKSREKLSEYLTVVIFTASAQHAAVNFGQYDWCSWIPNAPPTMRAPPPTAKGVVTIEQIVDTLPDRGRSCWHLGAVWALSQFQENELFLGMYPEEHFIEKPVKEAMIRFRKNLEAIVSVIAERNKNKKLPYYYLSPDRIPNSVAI
# Experiment: LTB4 formed after stimulation with Ca-ionophor, determined by reversed phase HPLC, as a measure of the lipoxygenase activity of PMN
# Assay type: cell-based, rats
# Conditions: LTB4 formation, Ca-ionophor stimulated rat PMN
# Experimental: The pharmacological action of the substances according to the invention was determined by the following method:
# The leucotriene B4 (LTB4) formed after stimulation with Ca-ionophor is determined by means of reversed phase HPLC in accordance with the method of Borgeat et al. Proc. Natl. Acad. Sci. USA, 76, 215 (1982) as a measure of the lipoxygenase activity of PMN in rats.
row,IC50 [nM],SMILES
1,349,"c1cc(Sc2ccc(NC3=NCCS3)cc2)ccc1NC1=NCCS1 [Example 2, Bis[4-(Δ^2-thiazolin-2-yl)aminophenyl]sulphide]"
2,776,"c1cc(Sc2ccc(NC3=NCCS3)cc2)ccc1NC1=NCCS1 [Example 3, Bis[4-(Δ^2-thiazolin-2-yl)aminophenyl]sulphide HCl salt]"
3,501,"c1ccc(C2CSC(Nc3ccc(Sc4ccc(NC5=NC(c6ccccc6)CS5)cc4)cc3)=N2)cc1 (stereo not drawn) [Example 4, Bis[4-(4-phenyl-Δ^2-thiazolin-2-yl)aminophenyl]sulphide]"
4,209,"COC(=O)Cc1cc(NC2=NCCS2)ccc1Sc1ccccc1 [Example 10, Methyl[2-phenylthio-5-(Δ^2-thiazolin-2-yl)amino]phenylacetate]"
5,97.8,c1ccc(Sc2ccc(NC3=NCCS3)cc2)cc1 [Example 12]
6,265,"CN1CCSC1=Nc1ccc(Sc2ccc(N=C3SCCN3C)cc2)cc1 [Example 17, Bis[4-(3-methyl-thiazolidin-2-imino)phenyl]sulphide]"
7,123,"CC1CN=C(Nc2ccc(Sc3ccc(NC4=NCC(C)S4)cc3)cc2)S1 (stereo not drawn) [Example 22, Bis[4-(5-methyl-Δ^2-thiazolin-2-yl)aminophenyl]sulphide]"
8,145,"Cc1ccc(S(=O)(=O)Nc2ccc(Sc3ccc(NC4=NCCS4)cc3)cc2)cc1 [Example 29, 4-(Δ^2 -Thiazolin-2-yl)amino-4'-tosylaminodiphenyl sulphide]"
